The subject of data set [1] is cerebral cortical neurons. In words: Protective activity against iron-induced neuronal damage (LDH release). It is filed as cell-based. As to conditions: Rattus norvegicus, Cortical neurone, FeSO4 50 μM, 24 hours. Here is the method:
In order to examine whether the compounds of the formula 1 suppress the iron-induced neuronal damage and death, experiments were conducted as follows.
From the brains of 17-18 day-old rat embryos, cerebral cortical neurons were isolated and then, cultured at 37° C. for 7-9 days in a 5% CO2 incubator. The cortical cell cultures were washed twice with a minimum essential medium (MEM) to reduce the serum concentration to 0.2% and pre-treated with test compounds at 30, 7.5, 1.875, and 0.469 μM of final concentrations, each for 30 min. The test compounds were dissolved in DMSO and diluted in a medium. At this time, the final concentration of DMSO was not allowed to exceed 0.2%. For a control group, only vehicle was applied.
After the pre-treatment with test compounds or vehicle, FeSO4 was added to a final concentration of 50 μM, and the cultures were maintained for 24 hours in a CO2 incubator. During incubation, lactate dehydrogenase (LDH) was released into the medium upon neuronal death by the oxidative toxicity of iron. The extent of neuronal damage was assessed by measuring the amount of LDH released into the media. The protective effect of the compounds of interest on neurons was evaluated by calculating the reduction rate of released LDH of treated group compared with that of the control group, and IC50 was calculated as the least linear regression analysis of dose-response curve.

Data set [2] relates to HUVECs (Human umbilical vein endothelial cells). In words: Inhibitory effects on HUVEC tube formation.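 On tube formation: from minus no inhibition up to plus-plus-plus complete inhibition versus vehicle.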 Format: cell-based. In a few lines: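 HUVECs within passage 5 were plated on bFGF-reduced polymerized Matrigel and incubated with or without compound. Tube formation assessed as changes in cell morphology by phase-contrast microscopy and photography.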
The test system of another data set is SPF SD rats. The note with it: rat, in vivo, po.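 Further: Six-week-old animals, two per group, followed across an observation period.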
The subject of another data set is rat brain homogenate. In words: Inhibitory activity against iron-induced lipid peroxidation (MDA). It is filed as biochemical. As to conditions: 30 μM, FeCl2 400 μm. The procedure:
In order to examine whether the compounds of the formula 1 suppress the iron-induced lipid peroxidation, experiments were conducted as follows.
The rat brain was homogenized in a Krebs buffer (15 mM HEPES, 10 mM glucose, 140 mM NaCl, 3.6 mM KCl, 1.5 mM CaCl2, 1.4 mM KH2PO4, 0.7 mM MgCl2, pH 7.4) and the supernatant separated by centrifugation at 12,000 rpm for 10 min was used for further experiments. FeCl2 was added to a final concentration of 400 μm in the brain homogenate which was then allowed to stand at 37° C. for 30 min. for the facilitation of oxidation. Each of the test compounds was added at a concentration of 30 μM and vehicle was used as a control.
Iron facilitates the oxidation of the brain homogenate to produce malondialdehyde (MDA), a lipid peroxidation product. Thus, the lipid peroxidation was determined by MDA quantification. The inhibitory effect of the test compounds against the lipid peroxidation was evaluated by calculating MDA reduction rate of the test compounds compared with that of the control group.
Typically, the MDA quantification is achieved by reacting samples with 2-thiobarbituric acid (TBA) and measuring the absorbance at 530 nm. However, this method is unsuitable to treat samples on a large scale because of a boiling step. Thus, in this experiment, N-methyl-2-phenylindole was used instead of TBA. […] Bioxytech^R LPO-586 Kit was used for MDA quantification.

With `COC(OC)[C@@]1(C)Oc2ccc([N+](=O)[O-])cc2[C@H](N(Cc2ncc[nH]2)c2ccc(Cl)cc2)[C@H]1O` [Example 2, (2S,3R,4S)-3,4-dihydro-2-dimethoxymethyl-3-hydroxy-2-methyl-6-nitro-4-[N-(4-chlorophenyl)-N-(1H-imidazol-2-ylmethyl)amino]-2H-1-benzopyran], the inhibition at 30 µM in data set [1] (30 μM, read-out: Neuroprotection inhibition % (LDH release)) was found to be 92%. Further, in data set [1] (read-out: Neuroprotection IC50), the IC50 was 6.2 µM. Moreover, the entries for the “inhibitory effect on HUVEC tube formation” value in data set [2] (10 uM) and in data set [2] (100 uM) were “strong inhibition” and “complete inhibition”, respectively. Moreover, the Tube formation result in data set [2] (10 μM) is listed as “++”; in data set [2] (100 μM), “+++”. Further, in the data set on SPF SD rats, the “clinical symptoms, body weight and mortality” value (“clinical symptoms” below) is given as “no significant changes”.
As for `COC(OC)[C@@]1(C)Oc2ccc(N)cc2[C@@H](N(Cc2ncc[nH]2)c2ccc(Cl)cc2)[C@@H]1O` [Example 24, (2S,3S,4R)-6-amino-3,4-dihydro-2-dimethoxymethyl-3-hydroxy-2-methyl-4-[N-(4-chlorophenyl)-N-(1H-imidazol-2-ylmethyl)amino]-2H-1-benzopyran], the Tube formation entry in data set [2] (10 μM) and in data set [2] (100 μM) was “+” each time. For the same compound, in the data set with rat brain homogenate, the “% Inhibition of lipid peroxidation by iron” value came out at 83%. Further, in the data set on SPF SD rats, the “clinical symptoms” value is reported as “no significant changes”.
Turning to `COC(OC)[C@@]1(C)Oc2ccc(N)cc2[C@@H](N(Cc2ncc[nH]2)c2ccc(C(F)(F)F)cc2)[C@@H]1O` [Example 25, (2S,3S,4R)-6-amino-3,4-dihydro-2-dimethoxymethyl-3-hydroxy-2-methyl-4-[N-(4-trifluoromethylphenyl)-N-(1H-imidazol-2-ylmethyl)amino]-2H-1-benzopyran], the Tube formation entry in data set [2] (10 μM) and in data set [2] (100 μM) was “+/−” throughout. Further, the “% Inhibition of lipid peroxidation by iron” value in the data set on rat brain homogenate came to 97%. For the same compound, in the data set on SPF SD rats, the “clinical symptoms” value is on record as “no significant changes”.

These data come from patent US7279497B2, “Benzopyran derivatives substituted with secondary amines including imidazole, their preparation and pharmaceutical compositions containing them” (Korea Research Institute of Chemical Technology, priority 2002, dated 2007).
